Assay results from patent US20230407243A1, “GENETIC PLATFORM TO INVESTIGATE THE FUNCTIONS OF BACTERIAL DRUG EFFLUX PUMPS” (priority 2022, published 2023).
Read-outs that look alike come from different tables or passages of the source.

Columns and labels:
Assay type in all cases: cell-based, Escherichia coli
[1] = tested on: EKO-35-Pore acrBD408A (functionally inactive AcrB variant); experiment: Checkerboard synergy (FICI), porinated strain
Description: (§1) Synergy measurement using checkerboard analysis was performed in 96-well microtiter plates using the microdilution broth method, according to CLSI guidelines (Patel J. B., 2015). The cell inocula were prepared using the colony resuspension method. The minimum inhibitory concentrations (MICs) were defined as the lowest concentration that provided no growth, as determined by measurement of the OD600nm using a Synergy H1 microplate reader (BioTek). Susceptibility testing was performed in MHB II with a final volume of 100 μL. PAI3N (Bachem Americas) was solubilized in MHB II. […] Solvent controls were included in each plate.
(§2) The Fractional Inhibitory Concentration Index (FICI) was used to assess the synergy of PAI3N in combination with different antibiotics. The FICI represents the ΣFIC of each drug. The FICI for each drug was calculated using the following formula: FICI=FICA+FICB=(CA/MICA)+(CB/MICB). Where MICA and MICB are the MICs of drugs A (PAI3N/NMP) and B (antibiotic) alone, and CA and CB are the MICs of the drugs in combination. The effects of PAβN or NMP in combination with antibiotics were classified as: synergistic (FICI<0.5), additive (FICI>0.5-1.0), indifferent (FICI>1.0-2.0), and antagonistic (FICI>2.0). Fold increases in resistance provided by efflux pumps were calculated by dividing the MIC values of strains expressing efflux pumps by the MIC value of EKO-35.

wild-type K-12-Pore = experiment: Checkerboard synergy (FICI), porinated strain
Description: as §1, §2

[2] = tested on: EKO-35 porinated strain expressing acrB; experiment: Checkerboard synergy (FICI), porinated strain
Description: as §1, §2

EKO-35-Pore = experiment: Checkerboard synergy (FICI), porinated strain
Description: as §1, §2

EKO-35 = tested on: EKO-35
Summary of the method: (§3)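 Checkerboard broth microdilution in MHB II followed CLSI guidelines, with MIC defined as the lowest concentration giving no growth by OD600. FICI was calculated as CA/MICA + CB/MICB for PAβN or NMP combined with an antibiotic, with <0.5 classed as synergistic. Efflux-attributed fold resistance is the strain MIC divided by the EKO-35 MIC.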

ΔtolC-Pore = tested on: ΔtolC-Pore
Summary of the method: as §3

wild-type E. coli K-12 = tested on: wild-type E. coli K-12
Summary of the method: as §3

[3] = tested on: EKO-35 strains producing different efflux pumps (EKO-35 araC::X); experiment: Checkerboard synergy (FICI) of PAβN or NMP with antibiotics
Description: as §1, §2

[4] = strain EKO-35 acrBD408A Pore, NMP + antibiotic
[5] = EKO-35 acrB Pore, NMP + antibiotic
[6] = strain EKO-35 acrB Pore, NMP + antibiotic
[7] = strain EKO-35 Pore, NMP + antibiotic
[8] = strain EKO-35, NMP + antibiotic
[9] = strain ΔtolC Pore, NMP + antibiotic
[10] = strain EKO-35 acrB, NMP + antibiotic

In the case of `CC(=O)NC[C@H]1CN(c2ccc(N3CCOCC3)c(F)c2)C(=O)O1` [linezolid], the FICI ([1]; EKO-35 acrBD408A Pore, NMP + antibiotic) is reported as 2.000, the FICI ([1]; EKO-35 acrBD408A Pore, PAβN + antibiotic) is reported as 1.000 and the “MICb Alone” value ([1]; EKO-35 acrBD408A Pore, antibiotic alone (PAβN checkerboard)) is reported as 8 µg/mL. For the same compound, the “MICb Combined” value ([1]; EKO-35 acrBD408A Pore, antibiotic in combination with PAβN) was 4 µg/mL, the Effect [1, 4] was “— (indifferent (FICI >1.0))” and the FICI [1, 4] was 2.000. For the same compound, the “MICb Alone” value ([1]; strain EKO-35 acrBD408A Pore, antibiotic alone) was 8 µg/mL, the “MICb Combined” value ([1]; strain EKO-35 acrBD408A Pore, antibiotic in combination with NMP) was 8 µg/mL and the Effect (wild-type K-12-Pore; K-12 Pore, NMP + antibiotic) was “Synergistic”. For the same compound, the Effect (wild-type K-12-Pore; K-12 Pore, PAβN + antibiotic) was “Synergistic”, the FICI (wild-type K-12-Pore; K-12 Pore, PAβN + antibiotic) was 0.250 and the “MICb Alone” value (wild-type K-12-Pore; K-12 Pore, antibiotic alone (PAβN checkerboard)) was 128 µg/mL. For the same compound, the “MICb Combined” value (wild-type K-12-Pore; K-12 Pore, antibiotic in combination with PAβN) was 16 µg/mL, the Effect (wild-type K-12-Pore; strain K-12 Pore, NMP + antibiotic) was “Synergistic (Synergy (FICI ≤0.5))” and the “MICb Alone” value (wild-type K-12-Pore; strain K-12 Pore, antibiotic alone) was 128 µg/mL. For the same compound, the “MICb Combined” value (wild-type K-12-Pore; strain K-12 Pore, antibiotic in combination with NMP) was 32 µg/mL, the Effect [2, 5] was “Synergistic” and the FICI [2, 5] was 0.250. The Effect ([2]; EKO-35 acrB Pore, PAβN + antibiotic) was “Synergistic”, the “MICb Alone” value ([2]; EKO-35 acrB Pore, antibiotic alone (PAβN checkerboard)) was 128 µg/mL and the “MICb Combined” value ([2]; EKO-35 acrB Pore, antibiotic in combination with PAβN) was 8 µg/mL. For the same compound, the “potentiation of the labelled compound by NMP” value ([2]; porinated strain producing AcrB) was “enhancing the activity”, the Effect [2, 6] was “Synergistic (Synergy (FICI ≤0.5))” and the FICI [2, 6] was 0.250. For the same compound, the “MICb Alone” value ([2]; strain EKO-35 acrB Pore, antibiotic alone) was 128 µg/mL, the “MICb Combined” value ([2]; strain EKO-35 acrB Pore, antibiotic in combination with NMP) was 16 µg/mL and the FICI (EKO-35-Pore; EKO-35 Pore, NMP + antibiotic) was 2.000. For the same compound, the FICI (EKO-35-Pore; EKO-35 Pore, PAβN + antibiotic) was 1.000, the “MICb Alone” value (EKO-35-Pore; EKO-35 Pore, antibiotic alone (PAβN checkerboard)) was 8 µg/mL and the “MICb Combined” value (EKO-35-Pore; EKO-35 Pore, antibiotic in combination with PAβN) was 4 µg/mL. For the same compound, the Effect (EKO-35-Pore; [7]) was “— (indifferent (FICI >1.0))”, the FICI (EKO-35-Pore; [7]) was 2.000 and the “MICb Alone” value (EKO-35-Pore; strain EKO-35 Pore, antibiotic alone) was 8 µg/mL. For the same compound, the “MICb Combined” value (EKO-35-Pore; strain EKO-35 Pore, antibiotic in combination with NMP) was 8 µg/mL, the Effect (EKO-35; EKO-35, NMP + antibiotic) was “Additive” and the FICI (EKO-35; EKO-35, NMP + antibiotic) was 0.531. For the same compound, the Effect (EKO-35; EKO-35, PAβN + antibiotic) was “Additive”, the FICI (EKO-35; EKO-35, PAβN + antibiotic) was 0.750 and the “MICb Alone” value (EKO-35; EKO-35, antibiotic alone (PAβN checkerboard)) was 16 µg/mL. For the same compound, the “MICb Combined” value (EKO-35; EKO-35, antibiotic in combination with PAβN) was 4 µg/mL, the “interaction of PAβN in combination with the labelled antibiotic (FICI)” value (EKO-35; efflux-deficient strains EKO-35, EKO-35 acrBD408A, ΔtolC) was “not synergistic” and the Effect (EKO-35; [8]) was “Additive (additive (FICI >0.5-1.0))”. For the same compound, the FICI (EKO-35; [8]) was 0.531, the “MICb Alone” value (EKO-35; strain EKO-35, antibiotic alone) was 16 µg/mL and the “MICb Combined” value (EKO-35; strain EKO-35, antibiotic in combination with NMP) was 8 µg/mL. The Effect (ΔtolC-Pore; [9]) was “— (indifferent (FICI >1.0))”, the FICI (ΔtolC-Pore; [9]) was 1.000 and the “MICb Alone” value (ΔtolC-Pore; strain ΔtolC Pore, antibiotic alone) was 8 µg/mL. For the same compound, the “MICb Combined” value (ΔtolC-Pore; strain ΔtolC Pore, antibiotic in combination with NMP) was 4 µg/mL, the FICI (ΔtolC-Pore; ΔtolC Pore, NMP + antibiotic) was 1.000 and the Effect (ΔtolC-Pore; ΔtolC Pore, PAβN + antibiotic) was “Additive”. For the same compound, the FICI (ΔtolC-Pore; ΔtolC Pore, PAβN + antibiotic) was 0.563, the “MICb Alone” value (ΔtolC-Pore; ΔtolC Pore, antibiotic alone (PAβN checkerboard)) was 8 µg/mL and the “MICb Combined” value (ΔtolC-Pore; ΔtolC Pore, antibiotic in combination with PAβN) was 0.5 µg/mL. For the same compound, the Effect (wild-type E. coli K-12; K-12, NMP + antibiotic) was “Synergistic”, the FICI (wild-type E. coli K-12; K-12, NMP + antibiotic) was 0.375 and the Effect (wild-type E. coli K-12; K-12, PAβN + antibiotic) was “Synergistic”. The FICI (wild-type E. coli K-12; K-12, PAβN + antibiotic) was 0.125, the “MICb Alone” value (wild-type E. coli K-12; K-12, antibiotic alone (PAβN checkerboard)) was 256 µg/mL and the “MICb Combined” value (wild-type E. coli K-12; K-12, antibiotic in combination with PAβN) was 16 µg/mL. The Effect (wild-type E. coli K-12; strain K-12, NMP + antibiotic) was “Synergistic (Synergy (FICI ≤0.5))”, the FICI (wild-type E. coli K-12; strain K-12, NMP + antibiotic) was 0.375 and the “MICb Alone” value (wild-type E. coli K-12; strain K-12, antibiotic alone) was 256 µg/mL. The “MICb Combined” value (wild-type E. coli K-12; strain K-12, antibiotic in combination with NMP) was 32 µg/mL, the Effect ([3]; EKO-35 acrB, NMP + antibiotic) was “Synergistic” and the FICI ([3]; EKO-35 acrB, NMP + antibiotic) was 0.281. For the same compound, the Effect ([3]; EKO-35 acrB, PAβN + antibiotic) was “Synergistic”, the “MICb Combined” value ([3]; EKO-35 acrB, antibiotic in combination with PAβN) was 16 µg/mL and the Effect [3, 10] was “Synergistic (Synergy (FICI ≤0.5))”. For the same compound, the FICI [3, 10] was 0.281 and the “MICb Combined” value ([3]; strain EKO-35 acrB, antibiotic in combination with NMP) was 8 µg/mL.
